Data as given in patent publication US9840478B2 (MERCK SHARP & DOHME CORP., priority 2013, dated 2017).
pIC50: −log10 of the molar value. Read-outs that look alike come from different tables or passages of the source.

Tested on: HIV-1 (H9IIIB strain)
Experiment: Cell-based HIV infection assay using a reporter (Cell-Based), MT4-GFP cells
Conditions: 50% normal human serum, mean of at least two independent experiments, read-out: Cell-based IP
How it was run: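 MT4-GFP cells (HIV LTR-driven GFP) infected 24 h with HIV-1 H9IIIB at low MOI, then washed and plated with compounds in RPMI + 50% normal human serum, 0.4% DMSO final. Green cells counted at 24 and 48 h; R0 = 48 h/24 h ratio, inhibition normalized to DMSO and triple-drug control; IC50 from 4-parameter fit.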

[1] = Human immunodeficiency virus 1, MT4-GFP cells infected with HIV-1 H9IIIB
[2] = MT4-GFP cells infected with HIV-1 H9IIIB

| Structure (SMILES) | pIC50 [1] | pIC50 [2] |
| --- | --- | --- |
| COC(=O)N[C@H](C(=O)Nc1cncc(F)c1CC[C@H]1CNC[C@H](C)N1S(=O)(=O)C1CC1)[C@@H](c1ccc(F)cc1)c1cc(F)cc(F)c1 [Example 210, (βS)-N-(4-{2-[(2S,6S)-1-(cyclopropylsulfonyl)-6-methylpiperazin-2-yl]ethyl}-5-fluoropyridin-3-yl)-β-(3,5-difluorophenyl)-4-fluoro-Nα-(methoxycarbonyl)-L-phenylalaninamide] | 7.89 |  |
| COC(=O)N[C@H](C(=O)Nc1cncc(F)c1CC[C@H]1CNC[C@@H](C)N1S(=O)(=O)C1CC1)[C@@H](c1ccc(F)cc1)c1cc(F)cc(F)c1 [Example 211, (βS)-N-(4-{2-[(2S,6R)-1-(cyclopropylsulfonyl)-6-methylpiperazin-2-yl]ethyl}-5-fluoropyridin-3-yl)-β-(3,5-difluorophenyl)-4-fluoro-Nα-(methoxycarbonyl)-L-phenylalaninamide] | 7.80 |  |
| COC(=O)N[C@H](C(=O)Nc1cccc(F)c1CC[C@H]1CNC[C@H](C)N1S(=O)(=O)C1CC1)[C@@H](c1ccc(F)cc1)c1cc(F)cc(F)c1 [Example 212, (βS)-N-(2-{2-[(2S,6S)-1-(cyclopropylsulfonyl)-6-methylpiperazin-2-yl]ethyl}-3-fluorophenyl)-β-(3,5-difluorophenyl)-4-fluoro-Nα-(methoxycarbonyl)-L-phenylalaninamide] | 7.89 |  |
| C[C@H]1CNC[C@H](CCc2c(F)cncc2NC(=O)[C@@H](N)[C@@H](c2ccc(Cl)cc2)c2cccc(F)c2)N1S(C)(=O)=O [Example 213, (βS)-4-chloro-N-(5-fluoro-4-{2-[(2S,6S)-6-methyl-1-(methylsulfonyl)piperazin-2-yl]ethyl}pyridin-3-yl)-β-(3-fluorophenyl)-L-phenylalaninamide] | 7.54 |  |
| C[C@H]1CNC[C@H](CCc2c(F)cccc2NC(=O)[C@@H](N)[C@@H](c2ccc(F)cc2)c2cc(F)cc(F)c2)N1S(=O)(=O)c1ccc(OC(F)(F)F)cc1 [Example 214, (βS)-β-(3,5-difluorophenyl)-4-fluoro-N-(3-fluoro-2-{2-[(2S,6S)-6-methyl-1-{[4-(trifluoromethoxy)phenyl]sulfonyl}piperazin-2-yl]ethyl}phenyl)-L-phenylalaninamide] | 7.36 |  |
| CC(C)[C@H](c1cccc(Cl)c1)[C@H](N)C(=O)Nc1cccc(F)c1CC[C@H]1CNC[C@H](C)N1S(=O)(=O)C1CC1 [Example 215, (βR)-3-chloro-N-(2-{2-[(2S,6S)-1-(cyclopropylsulfonyl)-6-methylpiperazin-2-yl]ethyl}-3-fluorophenyl)-β-(1-methylethyl)-L-phenylalaninamide] | 5.60 |  |
| COC(=O)N[C@H](C(=O)Nc1cccc(F)c1CC[C@H]1CNC[C@H](C)N1S(=O)(=O)C1CC1)[C@@H](c1cccc(Cl)c1)C(C)C [Example 216, (βR)-3-chloro-N-(2-{2-[(2S,6S)-1-(cyclopropylsulfonyl)-6-methylpiperazin-2-yl]ethyl}-3-fluorophenyl)-Nα-(methoxycarbonyl)-β-(1-methylethyl)-L-phenylalaninamide] | 5.89 |  |
| COC(=O)N[C@H](C(=O)Nc1cccc(F)c1CC[C@H]1CNC[C@@H](C)N1S(=O)(=O)C1CC1)[C@@H](c1cccc(Cl)c1)C(C)C [Example 217, (βR)-3-chloro-N-(2-{2-[(2S,6R)-1-(cyclopropylsulfonyl)-6-methylpiperazin-2-yl]ethyl}-3-fluorophenyl)-Nα-(methoxycarbonyl)-β-(1-methylethyl)-L-phenylalaninamide] | 5.74 |  |
| COCC1CNC[C@H](CCc2c(F)cccc2NC(=O)[C@@H](N)[C@@H](c2ccc(Cl)cc2)C2CCOCC2)N1S(C)(=O)=O (stereo partly drawn) [Example 218, (βR)-4-chloro-N-(3-fluoro-2-{2-[(2S)-6-(methoxymethyl)-1-(methylsulfonyl)piperazin-2-yl]ethyl}phenyl)-β-(tetrahydro-2H-pyran-4-yl)-L-phenylalaninamide] |  | 6.51 |
| C[C@H]1CNC[C@H](CCc2c(F)cccc2NC(=O)[C@@H](N)[C@H](c2cncc(F)c2)c2cccc(Cl)c2)N1S(=O)(=O)c1ccccc1 [Example 219, (βS)-3-chloro-N-(3-fluoro-2-{2-[(2S,6S)-6-methyl-1-(phenylsulfonyl)piperazin-2-yl]ethyl}phenyl)-β-(5-fluoropyridin-3-yl)-L-phenylalaninamide] | 7.60 |  |
| C[C@H]1CNC[C@H](CCc2c(F)cccc2NC(=O)[C@@H](N)[C@@H](Cc2ccc(F)cc2)c2ccc(Cl)cc2)N1S(=O)(=O)c1ccc(OC(F)(F)F)cc1 [Example 220, (βS)-4-chloro-β-(4-fluorobenzyl)-N-(3-fluoro-2-{2-[(2S,6S)-6-methyl-1-{[4-(trifluoromethoxy)phenyl]sulfonyl}piperazin-2-yl]ethyl}phenyl)-L-phenylalaninamide] | 6.11 |  |
| COC(=O)N[C@H](C(=O)Nc1cccc(F)c1CC[C@H]1CNC[C@H](C)N1S(=O)(=O)c1ccc(OC(F)(F)F)cc1)[C@@H](Cc1ccc(F)cc1)c1ccc(Cl)cc1 [Example 221, (βS)-4-chloro-β-(4-fluorobenzyl)-N-(3-fluoro-2-{2-[(2S,6S)-6-methyl-1-{[4-(trifluoromethoxy)phenyl]sulfonyl}piperazin-2-yl]ethyl}phenyl)-Nα-(methoxycarbonyl)-L-phenylalaninamide] | 6.64 |  |
| COC(=O)N[C@H](C(=O)Nc1cccc(F)c1CC[C@H]1CNCC(COC(C)C)N1S(C)(=O)=O)[C@H](c1cccc(F)c1)c1cccc(Cl)c1 (stereo partly drawn) [Example 222, (βR)-β-(3-chlorophenyl)-3-fluoro-N-(3-fluoro-2-{2-[(2S)-6-[(1-methylethoxy)methyl]-1-(methylsulfonyl)piperazin-2-yl]ethyl}phenyl)-Nα-(methoxycarbonyl)-L-phenylalaninamide] | 7.12 |  |
| C[C@H]1CNC[C@H](CCc2c(F)cccc2NC(=O)[C@@H](N)[C@@H](c2ccc(F)cc2)c2cc(F)cc(F)c2)N1S(=O)(=O)C1CC1 [Example 223, (βS)-N-(2-{2-[(2S,6S)-1-(cyclopropylsulfonyl)-6-methylpiperazin-2-yl]ethyl}-3-fluorophenyl)-β-(3,5-difluorophenyl)-4-fluoro-L-phenylalaninamide] | 7.44 |  |
| CC[C@H]1CNC[C@H](CCc2c(F)cccc2NC(=O)[C@@H](N)[C@@H](c2ccc(Cl)cc2)C2CCOCC2)N1S(C)(=O)=O [Example 224, (βR)-4-chloro-N-(2-{2-[(2S,6S)-6-ethyl-1-(methylsulfonyl)piperazin-2-yl]ethyl}-3-fluorophenyl)-β-(tetrahydro-2H-pyran-4-yl)-L-phenylalaninamide] | 7.05 |  |
| CC[C@H]1CNC[C@H](CCc2c(F)cccc2NC(=O)[C@@H](NC(=O)OC)[C@@H](c2ccc(Cl)cc2)C2CCOCC2)N1S(C)(=O)=O [Example 225, (βR)-4-chloro-N-(2-{2-[(2S,6S)-6-ethyl-1-(methylsulfonyl)piperazin-2-yl]ethyl}-3-fluorophenyl)-Nα-(methoxycarbonyl)-β-(tetrahydro-2H-pyran-4-yl)-L-phenylalaninamide] | 7.64 |  |
| CS(=O)(=O)N1C(COCc2ccccc2)CNC[C@@H]1CCc1c(F)cccc1NC(=O)[C@@H](N)[C@@H](Cc1ccc(F)cc1)c1ccc(Cl)cc1 (stereo partly drawn) [Example 226, (βS)-N-(2-{2-[(2S)-6-[(benzyloxy)methyl]-1-(methylsulfonyl)piperazin-2-yl]ethyl}-3-fluorophenyl)-4-chloro-β-(4-fluorobenzyl)-L-phenylalaninamide] | 5.96 |  |
| C[C@@H]1CNC[C@H](CCc2c(F)cncc2NC(=O)[C@@H](N)[C@@H](c2ccc(F)cc2)c2cc(F)cc(F)c2)N1S(=O)(=O)c1ccc(OC(F)(F)F)cc1 [Example 227, (βS)-β-(3,5-difluorophenyl)-4-fluoro-N-(5-fluoro-4-{2-[(2S,6R)-6-methyl-1-{[4-(trifluoromethoxy)phenyl]sulfonyl}piperazin-2-yl]ethyl}pyridin-3-yl)-L-phenylalaninamide] | 7.64 |  |
| CC(C)OCC1CNC[C@H](CCc2c(F)cccc2NC(=O)[C@@H](N)[C@@H](c2ccc(F)cc2)c2cc(F)cc(F)c2)N1S(=O)(=O)C1CC1 (stereo partly drawn) [Example 228, (βS)-N-[2-(2-{(2S)-1-(cyclopropylsulfonyl)-6-[(1-methylethoxy)methyl]piperazin-2-yl}ethyl)-3-fluorophenyl]-β-(3,5-difluorophenyl)-4-fluoro-L-phenylalaninamide] |  | 7.82 |
| C[C@H]1CNC[C@H](CCc2c(F)cccc2NC(=O)[C@@H](N)[C@@H](c2ccc(F)cc2)c2cc(F)cc(F)c2)N1S(=O)(=O)c1ccccc1Cl [Example 229, (βS)-N-[2-(2-{(2S,6S)-1-[(2-chlorophenyl)sulfonyl]-6-methylpiperazin-2-yl}ethyl)-3-fluorophenyl]-β-(3,5-difluorophenyl)-4-fluoro-L-phenylalaninamide] | 6.46 |  |
| C[C@@H]1CNC[C@H](CCc2c(F)cccc2NC(=O)[C@@H](N)[C@@H](c2ccc(F)cc2)c2cc(F)cc(F)c2)N1S(=O)(=O)c1ccccc1Cl [Example 230, (βS)-N-[2-(2-{(2S,6R)-1-[(2-chlorophenyl)sulfonyl]-6-methylpiperazin-2-yl}ethyl)-3-fluorophenyl]-β-(3,5-difluorophenyl)-4-fluoro-L-phenylalaninamide] | 6.54 |  |
| COC(=O)N[C@H](C(=O)Nc1cccc(F)c1CC[C@H]1CNC[C@H](C)N1S(=O)(=O)c1ccccc1Cl)[C@@H](c1ccc(F)cc1)c1cc(F)cc(F)c1 [Example 231, (βS)-N-[2-(2-{(2S,6S)-1-[(2-chlorophenyl)sulfonyl]-6-methylpiperazin-2-yl}ethyl)-3-fluorophenyl]-β-(3,5-difluorophenyl)-4-fluoro-Nα-(methoxycarbonyl)-L-phenylalaninamide] | 6.64 |  |
